Measurements taken from article PMC11094307, “Marine-derived EGFR inhibitors: novel compounds targeting breast cancer growth and drug resistance” (Frontiers in Pharmacology, 2024).

Assays:
MCF-7 cells = experiment: MTT assay, MCF-7 growth inhibition; format: cell-based, human
Experimental: Both mediums were enriched with 10% fetal bovine serum and 1% penicillin/streptomycin.
Cells in the exponential growth phase were seeded into 96-well plates and allowed to adhere overnight. […] After 24 h, 20 µL of Methyl-thiazolyldiphenyl-tetrazolium bromide (MTT, 5 mg/mL, Thermo Fisher Scientific) was added to each well and incubated for a minimum of 4 h. Following the incubation, the medium containing the compounds and MTT was removed from each well, and 200 µL of dimethyl sulfoxide (DMSO) was added.
(§1) All experiments were repeated at least three times, and the data are presented as mean ± standard deviation (SD). The statistical analyses were performed using Origin. EC50 or IC50 values were obtained by fitting the data to a four-parameter Hill model of the graph of log dose against percentage cell viability or inhibition from at least three sets of experiments. Difference between two groups were analyzed by Student’s t test (two-sided) and significance was set at p < 0.05. The specific details about statistical methods are introduced in respective figure legends.

H1299 cells = experiment: MTT assay, H1299; format: cell-based, human; conditions: H1299 (high EGFR-expressing), 10 μM
Experimental: The cell lines MCF-7 and A431 were cultured in Dulbecco’s Modified Eagle’s Medium (DMEM, Gibco, USA), while HL-60, H1299, and A549 cells were maintained in RPMI-1640 medium (Gibco, USA). Both mediums were enriched with 10% fetal bovine serum and 1% penicillin/streptomycin. […] All cell cultures were incubated at 37°C in an atmosphere containing 5% CO2.
Cells in the exponential growth phase were seeded into 96-well plates and allowed to adhere overnight. Subsequently, they were treated in triplicate with various concentrations of the compounds (0, 1.56, 3.13, 6.25, 12.5, 25, 50, 100 µM), […]. After 24 h, 20 µL of Methyl-thiazolyldiphenyl-tetrazolium bromide (MTT, 5 mg/mL, Thermo Fisher Scientific) was added to each well and incubated for a minimum of 4 h. Following the incubation, the medium containing the compounds and MTT was removed from each well, and 200 µL of dimethyl sulfoxide (DMSO) was added. The plates were then shaken for 10 min at 37°C to dissolve the formazan crystals. The absorbance was measured using a microplate reader (BioTek Synergy 4) at a wavelength of 490 nm.

EGFR L858R = target: T1, EGFR L858R (Homo sapiens, UniProt P00533, L858R); experiment: Kinase inhibition assay (ADP-Glo, Promega); format: biochemical; conditions: in vitro kinase assay; read-out: IC50 against EGFR L858R
T1 construct: purchased Promega Corporation, USA
T1 sequence (P00533 25-1210 L858R): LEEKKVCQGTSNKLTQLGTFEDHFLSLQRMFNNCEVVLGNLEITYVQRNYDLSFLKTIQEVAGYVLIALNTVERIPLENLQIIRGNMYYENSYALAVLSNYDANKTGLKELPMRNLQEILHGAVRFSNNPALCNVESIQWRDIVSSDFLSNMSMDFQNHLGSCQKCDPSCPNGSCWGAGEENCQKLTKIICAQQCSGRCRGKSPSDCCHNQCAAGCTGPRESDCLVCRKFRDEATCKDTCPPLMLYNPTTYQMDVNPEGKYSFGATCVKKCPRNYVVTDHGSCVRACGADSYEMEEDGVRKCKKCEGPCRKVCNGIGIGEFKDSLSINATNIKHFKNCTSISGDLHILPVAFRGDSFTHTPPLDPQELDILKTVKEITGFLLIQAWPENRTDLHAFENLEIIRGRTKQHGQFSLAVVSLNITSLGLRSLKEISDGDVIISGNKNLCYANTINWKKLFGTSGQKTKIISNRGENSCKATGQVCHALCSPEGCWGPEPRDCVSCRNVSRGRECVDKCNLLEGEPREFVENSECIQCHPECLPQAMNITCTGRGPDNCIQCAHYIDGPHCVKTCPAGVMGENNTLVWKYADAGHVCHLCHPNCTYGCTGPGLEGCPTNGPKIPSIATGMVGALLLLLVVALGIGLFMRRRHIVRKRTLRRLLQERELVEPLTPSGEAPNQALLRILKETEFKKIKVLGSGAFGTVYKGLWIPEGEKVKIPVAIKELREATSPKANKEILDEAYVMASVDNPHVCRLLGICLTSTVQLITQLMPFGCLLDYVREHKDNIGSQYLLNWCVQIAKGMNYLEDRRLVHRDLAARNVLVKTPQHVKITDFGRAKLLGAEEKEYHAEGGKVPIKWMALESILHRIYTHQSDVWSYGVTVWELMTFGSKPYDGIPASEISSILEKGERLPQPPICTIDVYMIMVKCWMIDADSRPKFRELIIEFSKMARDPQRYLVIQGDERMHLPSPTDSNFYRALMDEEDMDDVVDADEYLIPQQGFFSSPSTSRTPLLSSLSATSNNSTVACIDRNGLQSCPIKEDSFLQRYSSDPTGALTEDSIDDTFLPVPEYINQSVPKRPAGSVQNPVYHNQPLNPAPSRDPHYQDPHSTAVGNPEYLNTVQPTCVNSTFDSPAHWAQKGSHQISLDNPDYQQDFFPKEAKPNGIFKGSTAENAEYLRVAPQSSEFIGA
Experimental: (§2) The extracellular ligand-binding domain of EGFR, tagged with His, and the intracellular tyrosine kinase (TK) domain of EGFR, tagged with GST, were acquired from Sinobiological, China. […] Cell lines including MCF-7, A549, A431, H1299, HL-60, and MCF-10A were obtained from the China Infrastructure Cell Line Resources.
(§3) The experiments were conducted in accordance with the manufacturer’s guidelines (Promega). The procedure began with a kinase reaction, where 5 μL of 1× kinase buffer was utilized, and the mixture was incubated at room temperature for 60 min. This step was followed by the addition of 5 μL of ADP-Glo™ reagent to terminate the kinase reaction and to deplete any remaining ATP, with a subsequent incubation period of 40 min at room temperature. Next, 10 μL of kinase detection reagent was added to convert ADP back into ATP, and luciferase along with luciferin was introduced to facilitate ATP detection. This mixture was then incubated at room temperature for an additional 30 min. Detection was carried out using a BioTek Synergy4 instrument, and data analysis, including curve fitting and presentation, was performed using GraphPad Prism version 5.0.
as §1

EGFR T790M = target: T2, EGFR T790M (Homo sapiens, UniProt P00533, T790M); experiment: Kinase inhibition assay (ADP-Glo, Promega); format: biochemical; conditions: in vitro kinase assay; read-out: IC50 against EGFR T790M
T2 construct: purchased Promega Corporation, USA
T2 sequence (P00533 25-1210 T790M): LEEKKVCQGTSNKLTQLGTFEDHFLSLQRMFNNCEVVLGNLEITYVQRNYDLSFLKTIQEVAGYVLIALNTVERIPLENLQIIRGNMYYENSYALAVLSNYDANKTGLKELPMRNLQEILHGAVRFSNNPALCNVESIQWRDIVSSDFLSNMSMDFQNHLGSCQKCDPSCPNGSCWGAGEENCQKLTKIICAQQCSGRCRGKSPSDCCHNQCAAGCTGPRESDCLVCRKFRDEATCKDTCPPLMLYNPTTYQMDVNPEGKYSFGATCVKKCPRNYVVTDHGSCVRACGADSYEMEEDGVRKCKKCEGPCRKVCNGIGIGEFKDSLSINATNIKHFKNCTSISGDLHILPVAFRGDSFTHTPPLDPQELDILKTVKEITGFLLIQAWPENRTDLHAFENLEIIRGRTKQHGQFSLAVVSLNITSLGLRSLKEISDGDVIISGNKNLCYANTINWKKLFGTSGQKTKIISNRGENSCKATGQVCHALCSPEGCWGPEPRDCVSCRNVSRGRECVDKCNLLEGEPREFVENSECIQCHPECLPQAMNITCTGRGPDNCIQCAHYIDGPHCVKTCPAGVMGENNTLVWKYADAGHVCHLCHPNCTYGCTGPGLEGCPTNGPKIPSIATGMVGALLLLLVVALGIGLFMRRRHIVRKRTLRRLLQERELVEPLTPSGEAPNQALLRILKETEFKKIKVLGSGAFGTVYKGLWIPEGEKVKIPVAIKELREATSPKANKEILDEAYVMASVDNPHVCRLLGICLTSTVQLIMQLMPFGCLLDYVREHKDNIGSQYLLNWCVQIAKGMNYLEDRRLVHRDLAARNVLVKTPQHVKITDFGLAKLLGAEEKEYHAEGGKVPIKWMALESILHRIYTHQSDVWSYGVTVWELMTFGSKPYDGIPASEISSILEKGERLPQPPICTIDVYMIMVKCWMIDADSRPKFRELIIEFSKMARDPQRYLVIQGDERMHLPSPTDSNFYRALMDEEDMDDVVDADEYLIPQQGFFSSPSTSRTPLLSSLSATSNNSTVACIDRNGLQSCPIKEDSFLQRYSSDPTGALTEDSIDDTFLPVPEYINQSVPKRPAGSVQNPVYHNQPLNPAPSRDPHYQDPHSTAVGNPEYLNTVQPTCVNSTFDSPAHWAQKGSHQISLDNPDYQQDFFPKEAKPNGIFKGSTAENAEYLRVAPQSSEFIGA
Experimental: as §2, §3, §1

EGFR = target: T3, EGFR (Homo sapiens, UniProt P00533); experiment: CETSA in MCF-7 cells; format: cell-based; conditions: for CETSA WB Normalized (Figure 3F): control 0 µM 0.614197892
T3 construct: endogenous in cells; host or cells: MCF-7
T3 sequence (P00533 25-1210): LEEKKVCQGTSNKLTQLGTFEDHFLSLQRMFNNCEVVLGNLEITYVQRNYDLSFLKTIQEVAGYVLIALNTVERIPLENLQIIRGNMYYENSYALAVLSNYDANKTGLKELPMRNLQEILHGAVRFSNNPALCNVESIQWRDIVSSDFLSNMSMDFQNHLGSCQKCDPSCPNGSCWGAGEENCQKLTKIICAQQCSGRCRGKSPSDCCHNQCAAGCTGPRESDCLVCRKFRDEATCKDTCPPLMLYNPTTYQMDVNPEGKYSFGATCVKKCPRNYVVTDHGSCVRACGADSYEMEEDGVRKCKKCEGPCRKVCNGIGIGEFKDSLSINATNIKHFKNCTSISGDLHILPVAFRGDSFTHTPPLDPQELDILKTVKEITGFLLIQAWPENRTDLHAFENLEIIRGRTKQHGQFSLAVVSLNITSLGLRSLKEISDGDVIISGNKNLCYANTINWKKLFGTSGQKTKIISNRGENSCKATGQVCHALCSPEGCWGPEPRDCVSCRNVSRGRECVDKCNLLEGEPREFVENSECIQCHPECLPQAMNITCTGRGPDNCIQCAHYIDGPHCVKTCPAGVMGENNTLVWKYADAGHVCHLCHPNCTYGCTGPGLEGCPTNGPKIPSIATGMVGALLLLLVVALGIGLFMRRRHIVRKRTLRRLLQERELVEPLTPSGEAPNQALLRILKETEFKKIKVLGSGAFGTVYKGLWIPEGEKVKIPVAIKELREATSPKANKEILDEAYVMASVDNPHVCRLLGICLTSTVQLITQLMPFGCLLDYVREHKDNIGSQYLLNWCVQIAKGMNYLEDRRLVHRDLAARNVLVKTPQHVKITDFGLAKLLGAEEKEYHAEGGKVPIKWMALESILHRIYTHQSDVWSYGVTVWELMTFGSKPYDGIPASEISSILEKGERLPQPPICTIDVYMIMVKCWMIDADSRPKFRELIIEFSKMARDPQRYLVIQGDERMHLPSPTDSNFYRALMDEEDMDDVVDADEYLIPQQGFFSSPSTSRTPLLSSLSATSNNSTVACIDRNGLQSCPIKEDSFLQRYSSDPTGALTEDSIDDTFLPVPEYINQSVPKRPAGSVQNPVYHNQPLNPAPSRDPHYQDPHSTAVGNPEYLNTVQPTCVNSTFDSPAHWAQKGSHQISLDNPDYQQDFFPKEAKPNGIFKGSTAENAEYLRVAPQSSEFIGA
Experimental: In the CETSA, MCF-7 cells were treated with varying concentrations of Tandyukisin (5, 10, 20 µM) or a control solution of 0.2% DMSO for 24 h. Following treatment, cells were harvested and washed with PBS to eliminate any residual drug, then an equal number of cells were allocated into 0.2 mL PCR tubes. These cells were resuspended in 100 µL PBS supplemented with a complete protease inhibitor cocktail and subjected to a heating step at […] for 3 min. Post-heating, the cells underwent lysis through three cycles of freeze-thaw using liquid nitrogen, followed by centrifugation at 12,000g for 20 min at 4°C to separate the lysate. The clarified supernatant from each tube was then carefully transferred to fresh tubes for Western blotting.
To confirm Tandyukisin directly bound EGFR in cells, CETSA was conducted. Currently, CETSA is widely used in drug target discovery assay and is based on the thermal stability changes after drugs bind to their targets ([Martinez Molina et al., 2013]; [Jafari et al., 2014]). After treatment with Tandyukisin at 5, 10, 20 μM for 24 h, the multiple aliquots of the cell suspension were heated at 55°C. The heated cells were subsequently lysed and centrifuged to separate soluble fractions from precipitated denatured EGFR. After thermal denaturation, EGFR in the soluble fraction was examined by Western blotting.

[1] = target: T4, EGFR extracellular ligand binding domain (Homo sapiens, UniProt P00533); experiment: SPR binding (Biacore 8K)
T4 construct: His; purchased Sinobiological, China
T4 sequence (P00533 25-645 limits assumed): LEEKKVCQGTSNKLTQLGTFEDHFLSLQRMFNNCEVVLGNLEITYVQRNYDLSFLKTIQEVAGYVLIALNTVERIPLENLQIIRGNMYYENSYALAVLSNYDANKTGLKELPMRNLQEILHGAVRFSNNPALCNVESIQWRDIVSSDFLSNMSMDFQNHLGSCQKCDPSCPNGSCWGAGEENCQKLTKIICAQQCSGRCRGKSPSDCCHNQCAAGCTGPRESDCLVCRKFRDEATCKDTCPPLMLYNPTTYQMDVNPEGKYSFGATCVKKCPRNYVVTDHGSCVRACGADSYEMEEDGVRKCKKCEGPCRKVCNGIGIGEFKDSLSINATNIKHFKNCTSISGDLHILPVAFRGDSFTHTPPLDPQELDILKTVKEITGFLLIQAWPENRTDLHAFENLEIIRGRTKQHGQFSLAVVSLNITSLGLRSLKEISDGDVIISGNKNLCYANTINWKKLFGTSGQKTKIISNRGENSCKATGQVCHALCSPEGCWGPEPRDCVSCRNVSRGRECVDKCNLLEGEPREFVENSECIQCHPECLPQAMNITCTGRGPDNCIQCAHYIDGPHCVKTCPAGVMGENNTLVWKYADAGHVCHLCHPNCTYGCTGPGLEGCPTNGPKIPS
From the text: The extracellular ligand-binding domain of EGFR, tagged with His, and the intracellular tyrosine kinase (TK) domain of EGFR, tagged with GST, were acquired from Sinobiological, China. Kinase assay systems for both wild-type EGFR and its mutants—T790M, L858R, and the dual L858R/T790M—were procured from Promega Corporation, USA. Cell lines including MCF-7, A549, A431, H1299, HL-60, and MCF-10A were obtained from the China Infrastructure Cell Line Resources.
The binding affinities of compounds towards EGFR extracellular ligand binding domain and EGFR intracellular kinase domain were assayed using the SPR-based Biacore 8K instrument (Cytiva). Considering the purchased EGFR was fused with GST tag, GST alone was also immobilized on the chip to do the binding measurement. All the proteins were respectively immobilized on a CM5 sensor chip by using standard amine-coupling at 25°C with running buffer HEPES-P (20 mM HEPES buffer, […], 0.05% surfactant P20, pH 7.4). A reference channel was only activated and blocked to eliminate compound unspecific binding to the surface of the chip. The immobilization level of EGFR extracellular ligand binding domain, EGFR intracellular kinase domain and GST were all about 10,000 RU. […] Extra wash with 50% DMSO was added to remove the last remaining sample in the pipeline.

Question: For `COC(=O)C/C(C)=C/C(=O)O[C@@H]1C[C@@H](C)[C@H]2[C@@H](C=C[C@H](CC(C)C)[C@]2(C)C(=O)/C=C\O)[C@@H]1O` [Tandyukisin], which EC50 (MCF-7 cells; Homo sapiens, MCF7, MTT, 24 h, read-out: EC50, MCF-7 cell viability) is on record?
Answer: 3 ± 1 µM

Question: And the cell lethality percentage (MCF-7 cells; MCF-7, 10 μM)?
Answer: 75.7% ± 2.3%

Question: And the cell lethality percentage (H1299 cells)?
Answer: 60.3% ± 3.9%

Question: What about the IC50 (EGFR L858R) of the same compound?
Answer: 0.0031 ± 0.0001 µM

Question: What about the IC50 (EGFR T790M) of the same compound?
Answer: 0.0326 ± 0.0006 µM

Question: What about the “CETSA WB Gray Value (Figure 3F)” value (EGFR; 5 µM) of the same compound?
Answer: 29078.924

Question: And the “CETSA WB Normalized (Figure 3F)” value (EGFR; 5 µM)?
Answer: 0.7019

Question: And the “CETSA WB Gray Value (Figure 3F)” value (EGFR; 10 µM)?
Answer: 31150.702

Question: And the “CETSA WB Normalized (Figure 3F)” value (EGFR; 10 µM)?
Answer: 0.8063

Question: And the “CETSA WB Gray Value (Figure 3F)” value (EGFR; 20 µM)?
Answer: 42106.53

Question: What about the “CETSA WB Normalized (Figure 3F)” value (EGFR; 20 µM) of the same compound?
Answer: 1.166

Question: And the “accumulation of EGFR in the soluble fraction (CETSA) compared with DMSO control” value (EGFR; MCF-7, 5, 10, 20 μM, 24 h, heated)?
Answer: markable increase

Question: And the Kd [1]?
Answer: 101 µM

Question: And the kon ([1]; Figure 4C-D, read-out: ka, EGFR ligand binding domain)?
Answer: 109 M⁻¹ s⁻¹
